# PMC11397024, “Strategic Fluorination to Achieve a Potent, Selective, Metabolically Stable, and Orally Bioavailable Inhibitor of CSNK2” (Molecules, 2024)
# Key:
# Test in all cases: NanoBRET K192
# Format in all cases: cell-based
# AKT2 = biological target: T1, AKT2 (Homo sapiens, UniProt P31751); conditions: HEK293
# T1 construct: purchased Promega (NanoBRET Target Engagement K192 Kinase Selectivity System)
# Method in brief: (§1)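 HEK293 cells were transfected overnight with NanoLuc–kinase fusion vectors, then treated for 2 h at 37 °C with compound (added as 100 μM working solution) plus K10 tracer. BRET was read at 450/610 nm after substrate and extracellular inhibitor, and fractional occupancy was calculated against no-compound controls.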
# AXL = biological target: T2, AXL (Homo sapiens, UniProt P30530); conditions: HEK293
# T2 construct: host or cells: HEK293
# Method in brief: as §1
# BRAF(V600E) = biological target: T3, BRAF(V600E) (Homo sapiens, UniProt P15056, V600E); conditions: HEK293
# T3 construct: purchased Promega (NanoBRET Target Engagement K192 Kinase Selectivity System)
# Method in brief: as §1
# CDK6 + D1 = biological target: T4, CDK6 + D1 (Homo sapiens, UniProt Q00534); conditions: HEK293
# T4 construct: purchased Promega (NanoBRET Target Engagement K192 Kinase Selectivity System)
# Method in brief: as §1
# DYRK1B = biological target: T5, DYRK1B (Homo sapiens, UniProt Q9Y463); conditions: HEK293
# T5 construct: purchased Promega (NanoBRET Target Engagement K192 Kinase Selectivity System)
# Method in brief: as §1
# FES = biological target: T6, FES (Homo sapiens, UniProt P07332); conditions: HEK293
# T6 construct: purchased Promega (NanoBRET Target Engagement K192 Kinase Selectivity System)
# Method in brief: as §1
# FGFR4 = biological target: T7, FGFR4 (Homo sapiens, UniProt P22455); conditions: HEK293
# T7 construct: purchased Promega (NanoBRET Target Engagement K192 Kinase Selectivity System)
# Method in brief: as §1
# FLT3 = biological target: T8, FLT3 (Homo sapiens, UniProt P36888); conditions: HEK293
# T8 construct: host or cells: HEK293
# Method in brief: as §1
# IGF1R = biological target: T9, IGF1R (Homo sapiens, UniProt P08069); conditions: HEK293
# T9 construct: host or cells: HEK293
# Method in brief: as §1
# IKBKE = biological target: T10, IKBKE (Homo sapiens, UniProt Q14164); conditions: HEK293
# T10 construct: purchased Promega (NanoBRET Target Engagement K192 Kinase Selectivity System)
# Method in brief: as §1
# IRAK4 = biological target: T11, IRAK4 (Homo sapiens, UniProt Q9NWZ3); conditions: HEK293
# T11 construct: purchased Promega (NanoBRET Target Engagement K192 Kinase Selectivity System)
# Method in brief: as §1
# MAP3K2 = biological target: T12, MAP3K2 (Homo sapiens, UniProt Q9Y2U5); conditions: HEK293
# T12 construct: purchased Promega (NanoBRET Target Engagement K192 Kinase Selectivity System)
# Method in brief: as §1
# MAP3K21 = biological target: T13, MAP3K21 (Homo sapiens, UniProt Q5TCX8); conditions: HEK293
# T13 construct: purchased Promega (NanoBRET Target Engagement K192 Kinase Selectivity System)
# Method in brief: as §1
# MAP4K5 = biological target: T14, MAP4K5 (Homo sapiens, UniProt Q9Y4K4); conditions: HEK293
# T14 construct: purchased Promega (NanoBRET Target Engagement K192 Kinase Selectivity System)
# Method in brief: as §1
# NEK2 = biological target: T15, NEK2 (Homo sapiens, UniProt P51955); conditions: HEK293
# T15 construct: purchased Promega (NanoBRET Target Engagement K192 Kinase Selectivity System)
# Method in brief: as §1
# NUAK1 = biological target: T16, NUAK1 (Homo sapiens, UniProt O60285); conditions: HEK293
# T16 construct: purchased Promega (NanoBRET Target Engagement K192 Kinase Selectivity System)
# Method in brief: as §1
# PHKG1 = biological target: T17, PHKG1 (Homo sapiens, UniProt Q16816)
# T17 construct: purchased Promega (NanoBRET Target Engagement K192 Kinase Selectivity System)
# Method in brief: as §1
# PLK3 = biological target: T18, PLK3 (Homo sapiens, UniProt Q9H4B4); conditions: HEK293
# T18 construct: purchased Promega (NanoBRET Target Engagement K192 Kinase Selectivity System)
# Method in brief: as §1
# PRKAA1 = biological target: T19, PRKAA1 (Homo sapiens, UniProt Q13131); conditions: HEK293
# T19 construct: purchased Promega (NanoBRET Target Engagement K192 Kinase Selectivity System)
# Method in brief: as §1
# RPS6KA1 = biological target: T20, RPS6KA1 (Homo sapiens, UniProt Q15418); conditions: HEK293
# T20 construct: purchased Promega (NanoBRET Target Engagement K192 Kinase Selectivity System)
# Method in brief: as §1
# SGK1 = biological target: T21, SGK1 (Homo sapiens, UniProt O00141); conditions: HEK293
# T21 construct: purchased Promega (NanoBRET Target Engagement K192 Kinase Selectivity System)
# Method in brief: as §1
# SRMS = biological target: T22, SRMS (Homo sapiens, UniProt Q9H3Y6); conditions: HEK293
# T22 construct: purchased Promega (NanoBRET Target Engagement K192 Kinase Selectivity System)
# Method in brief: as §1
# STK11 = biological target: T23, STK11 (Homo sapiens, UniProt Q15831); conditions: HEK293
# T23 construct: purchased Promega (NanoBRET Target Engagement K192 Kinase Selectivity System)
# Method in brief: as §1
# STK16 = biological target: T24, STK16 (Homo sapiens, UniProt O75716); conditions: HEK293
# T24 construct: purchased Promega (NanoBRET Target Engagement K192 Kinase Selectivity System)
# Method in brief: as §1
# TLK2 = biological target: T25, TLK2 (Homo sapiens, UniProt Q86UE8); conditions: HEK293
# T25 construct: purchased Promega (NanoBRET Target Engagement K192 Kinase Selectivity System)
# Method in brief: as §1
# TNK1 = biological target: T26, TNK1 (Homo sapiens, UniProt Q13470); conditions: HEK293
# T26 construct: purchased Promega (NanoBRET Target Engagement K192 Kinase Selectivity System)
# Method in brief: as §1
# TNK2 = biological target: T27, TNK2 (Homo sapiens, UniProt Q07912); conditions: HEK293
# T27 construct: purchased Promega (NanoBRET Target Engagement K192 Kinase Selectivity System)
# Method in brief: as §1
# WEE2 = biological target: T28, WEE2 (Homo sapiens, UniProt P0C1S8); conditions: HEK293
# T28 construct: purchased Promega (NanoBRET Target Engagement K192 Kinase Selectivity System)
# Method in brief: as §1
# T17 sequence (Q16816 whole entry): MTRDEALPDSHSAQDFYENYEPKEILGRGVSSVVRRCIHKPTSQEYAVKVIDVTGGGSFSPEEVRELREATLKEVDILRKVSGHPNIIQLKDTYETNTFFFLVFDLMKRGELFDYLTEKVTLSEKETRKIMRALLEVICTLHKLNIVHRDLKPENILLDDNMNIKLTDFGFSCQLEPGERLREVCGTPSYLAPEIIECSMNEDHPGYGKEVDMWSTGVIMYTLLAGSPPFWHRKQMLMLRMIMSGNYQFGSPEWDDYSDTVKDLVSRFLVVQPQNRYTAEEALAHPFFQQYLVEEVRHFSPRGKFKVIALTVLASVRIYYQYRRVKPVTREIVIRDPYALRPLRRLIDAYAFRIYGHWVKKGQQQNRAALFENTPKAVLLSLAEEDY
# T18 sequence (Q9H4B4 whole entry): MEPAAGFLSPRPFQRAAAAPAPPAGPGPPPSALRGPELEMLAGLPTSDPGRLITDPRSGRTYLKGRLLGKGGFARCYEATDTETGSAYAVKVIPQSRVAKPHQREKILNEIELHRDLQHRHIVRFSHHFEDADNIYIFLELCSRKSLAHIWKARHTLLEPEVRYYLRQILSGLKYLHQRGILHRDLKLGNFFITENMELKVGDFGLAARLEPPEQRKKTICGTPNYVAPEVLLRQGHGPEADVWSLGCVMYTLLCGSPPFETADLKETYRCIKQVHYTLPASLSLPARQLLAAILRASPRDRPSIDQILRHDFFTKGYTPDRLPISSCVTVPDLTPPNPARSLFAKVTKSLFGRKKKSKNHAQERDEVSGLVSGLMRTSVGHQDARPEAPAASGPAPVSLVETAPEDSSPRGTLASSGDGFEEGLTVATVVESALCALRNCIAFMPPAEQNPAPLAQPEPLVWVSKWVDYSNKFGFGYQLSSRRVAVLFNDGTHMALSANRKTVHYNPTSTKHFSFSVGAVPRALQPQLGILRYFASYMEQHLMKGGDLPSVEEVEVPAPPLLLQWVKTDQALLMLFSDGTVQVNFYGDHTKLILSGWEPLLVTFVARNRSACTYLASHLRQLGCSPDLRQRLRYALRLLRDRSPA
# T22 sequence (Q9H3Y6 whole entry): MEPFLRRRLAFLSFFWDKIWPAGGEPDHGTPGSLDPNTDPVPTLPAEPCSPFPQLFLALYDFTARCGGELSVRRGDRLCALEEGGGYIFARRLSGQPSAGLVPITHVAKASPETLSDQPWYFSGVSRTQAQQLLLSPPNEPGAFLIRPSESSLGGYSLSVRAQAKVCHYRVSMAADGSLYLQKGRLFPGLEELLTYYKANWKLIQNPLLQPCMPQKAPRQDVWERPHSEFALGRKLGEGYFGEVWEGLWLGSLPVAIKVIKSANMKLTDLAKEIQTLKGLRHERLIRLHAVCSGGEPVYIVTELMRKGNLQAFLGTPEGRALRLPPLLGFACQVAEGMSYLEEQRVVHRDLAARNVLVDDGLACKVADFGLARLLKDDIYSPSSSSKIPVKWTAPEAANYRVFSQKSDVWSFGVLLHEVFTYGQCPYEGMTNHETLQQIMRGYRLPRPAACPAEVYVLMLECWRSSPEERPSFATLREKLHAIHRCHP
# T16 sequence (O60285 whole entry): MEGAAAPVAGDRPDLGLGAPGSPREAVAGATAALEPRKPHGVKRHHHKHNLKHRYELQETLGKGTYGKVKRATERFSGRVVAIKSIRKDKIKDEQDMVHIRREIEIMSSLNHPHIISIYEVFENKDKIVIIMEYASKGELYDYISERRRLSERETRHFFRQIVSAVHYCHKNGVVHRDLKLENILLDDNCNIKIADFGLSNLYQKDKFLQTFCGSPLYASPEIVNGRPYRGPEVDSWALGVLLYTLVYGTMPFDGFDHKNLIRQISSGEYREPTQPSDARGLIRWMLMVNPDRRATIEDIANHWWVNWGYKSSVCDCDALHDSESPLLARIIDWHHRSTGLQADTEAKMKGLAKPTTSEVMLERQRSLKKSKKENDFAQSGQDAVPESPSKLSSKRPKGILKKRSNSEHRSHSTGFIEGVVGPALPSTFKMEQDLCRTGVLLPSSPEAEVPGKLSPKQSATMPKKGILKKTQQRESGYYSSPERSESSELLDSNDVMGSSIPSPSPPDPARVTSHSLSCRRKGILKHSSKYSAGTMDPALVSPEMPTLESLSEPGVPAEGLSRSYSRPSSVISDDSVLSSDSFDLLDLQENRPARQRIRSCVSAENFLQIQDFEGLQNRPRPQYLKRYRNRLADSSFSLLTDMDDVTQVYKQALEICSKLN
# T11 sequence (Q9NWZ3 whole entry): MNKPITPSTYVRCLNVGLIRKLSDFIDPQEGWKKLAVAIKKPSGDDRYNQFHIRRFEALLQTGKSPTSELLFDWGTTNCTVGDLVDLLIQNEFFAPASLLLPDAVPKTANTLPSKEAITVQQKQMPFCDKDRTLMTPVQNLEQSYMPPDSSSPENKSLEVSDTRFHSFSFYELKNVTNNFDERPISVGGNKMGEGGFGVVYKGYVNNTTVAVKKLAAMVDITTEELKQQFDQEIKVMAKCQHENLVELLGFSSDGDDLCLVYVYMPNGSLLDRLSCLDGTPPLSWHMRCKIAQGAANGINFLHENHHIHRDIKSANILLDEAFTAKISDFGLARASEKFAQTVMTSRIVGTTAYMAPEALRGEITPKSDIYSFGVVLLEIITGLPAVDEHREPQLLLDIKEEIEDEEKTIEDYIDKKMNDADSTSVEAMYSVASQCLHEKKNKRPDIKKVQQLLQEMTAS
# T3 sequence (P15056 whole entry V600E): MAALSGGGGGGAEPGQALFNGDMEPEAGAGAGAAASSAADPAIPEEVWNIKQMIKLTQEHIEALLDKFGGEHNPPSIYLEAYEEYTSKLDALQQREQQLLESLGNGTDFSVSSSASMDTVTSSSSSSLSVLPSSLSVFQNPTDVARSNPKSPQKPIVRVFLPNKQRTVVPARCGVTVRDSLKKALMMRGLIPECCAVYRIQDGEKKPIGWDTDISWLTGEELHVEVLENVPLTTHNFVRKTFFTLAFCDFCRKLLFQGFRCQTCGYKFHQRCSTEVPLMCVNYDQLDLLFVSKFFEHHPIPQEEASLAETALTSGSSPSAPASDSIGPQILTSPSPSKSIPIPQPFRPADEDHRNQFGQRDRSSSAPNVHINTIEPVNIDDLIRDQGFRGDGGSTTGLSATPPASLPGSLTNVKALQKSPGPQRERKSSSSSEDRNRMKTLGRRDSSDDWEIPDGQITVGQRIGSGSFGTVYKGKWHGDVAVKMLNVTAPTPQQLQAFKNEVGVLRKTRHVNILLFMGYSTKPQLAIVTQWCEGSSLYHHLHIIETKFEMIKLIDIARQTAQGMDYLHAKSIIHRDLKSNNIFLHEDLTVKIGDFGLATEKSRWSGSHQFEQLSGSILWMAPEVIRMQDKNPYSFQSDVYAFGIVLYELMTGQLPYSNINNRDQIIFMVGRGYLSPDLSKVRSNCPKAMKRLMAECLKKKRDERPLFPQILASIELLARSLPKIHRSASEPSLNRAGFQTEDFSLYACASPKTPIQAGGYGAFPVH
# T27 sequence (Q07912 whole entry): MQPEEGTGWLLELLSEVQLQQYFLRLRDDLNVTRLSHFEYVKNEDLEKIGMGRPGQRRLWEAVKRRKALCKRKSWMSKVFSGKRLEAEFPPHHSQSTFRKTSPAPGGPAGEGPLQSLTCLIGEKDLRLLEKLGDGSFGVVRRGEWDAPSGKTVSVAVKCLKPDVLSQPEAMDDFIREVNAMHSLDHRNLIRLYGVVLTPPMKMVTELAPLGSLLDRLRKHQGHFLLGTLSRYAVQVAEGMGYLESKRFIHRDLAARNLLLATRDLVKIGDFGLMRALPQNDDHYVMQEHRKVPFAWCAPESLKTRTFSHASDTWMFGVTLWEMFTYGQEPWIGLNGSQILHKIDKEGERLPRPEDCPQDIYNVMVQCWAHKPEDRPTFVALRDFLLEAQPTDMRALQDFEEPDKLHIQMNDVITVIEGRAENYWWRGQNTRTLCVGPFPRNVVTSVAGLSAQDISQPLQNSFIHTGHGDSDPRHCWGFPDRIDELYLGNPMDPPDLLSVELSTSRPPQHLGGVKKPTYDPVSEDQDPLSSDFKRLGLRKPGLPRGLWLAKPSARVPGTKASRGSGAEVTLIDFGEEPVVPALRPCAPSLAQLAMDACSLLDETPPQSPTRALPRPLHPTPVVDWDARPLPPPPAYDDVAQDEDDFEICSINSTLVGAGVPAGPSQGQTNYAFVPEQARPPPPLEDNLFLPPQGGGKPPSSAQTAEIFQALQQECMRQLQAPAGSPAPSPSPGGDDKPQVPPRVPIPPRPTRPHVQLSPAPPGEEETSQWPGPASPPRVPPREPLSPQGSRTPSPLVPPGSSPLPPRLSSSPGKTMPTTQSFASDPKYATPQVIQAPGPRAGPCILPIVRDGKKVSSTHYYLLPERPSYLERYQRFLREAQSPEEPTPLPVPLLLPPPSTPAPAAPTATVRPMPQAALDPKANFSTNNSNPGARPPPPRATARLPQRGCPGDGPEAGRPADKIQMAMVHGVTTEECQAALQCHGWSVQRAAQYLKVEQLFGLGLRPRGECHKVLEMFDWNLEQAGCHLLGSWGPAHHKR
# T21 sequence (O00141 whole entry): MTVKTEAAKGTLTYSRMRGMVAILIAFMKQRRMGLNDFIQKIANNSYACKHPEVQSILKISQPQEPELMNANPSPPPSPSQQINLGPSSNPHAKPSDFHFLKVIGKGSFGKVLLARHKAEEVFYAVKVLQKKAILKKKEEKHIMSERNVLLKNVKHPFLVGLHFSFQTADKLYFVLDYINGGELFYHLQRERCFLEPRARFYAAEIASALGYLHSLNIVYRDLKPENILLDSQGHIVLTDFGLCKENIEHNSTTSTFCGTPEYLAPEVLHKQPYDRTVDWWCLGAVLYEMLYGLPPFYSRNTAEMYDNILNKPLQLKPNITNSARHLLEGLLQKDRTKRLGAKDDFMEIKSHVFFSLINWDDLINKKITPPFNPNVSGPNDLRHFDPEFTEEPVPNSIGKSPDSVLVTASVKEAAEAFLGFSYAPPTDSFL
compound,measurement,setting,value
"CCC(=O)Nc1cc(Nc2cc(NC3CC3)n3ncc(C#N)c3n2)c(F)cc1N1CCC[C@H](NC)C1 [Compound 2, (S)-N-(5-((3-cyano-7-(cyclopropylamino)pyrazolo[1,5-a]pyrimidin-5-yl)amino)-4-fluoro-2-(3-(methylamino)piperidin-1-yl)phenyl)propionamide]",receptor occupancy at 10 µM,AKT2,5.3%
same,receptor occupancy at 10 µM,AXL,-9.2%
same,receptor occupancy at 10 µM,BRAF(V600E),5.3%
same,receptor occupancy at 10 µM,CDK6 + D1,11.9%
same,receptor occupancy at 10 µM,DYRK1B,38.3%
same,receptor occupancy at 10 µM,FES,11.7%
same,receptor occupancy at 10 µM,FGFR4,8.2%
same,receptor occupancy at 10 µM,FLT3,-13.5%
same,receptor occupancy at 10 µM,IGF1R,-2.6%
same,receptor occupancy at 10 µM,IKBKE,23.4%
same,receptor occupancy at 10 µM,IRAK4,9.2%
same,receptor occupancy at 10 µM,MAP3K2,13.8%
same,receptor occupancy at 10 µM,MAP3K21,4.8%
same,receptor occupancy at 10 µM,MAP4K5,8.5%
same,receptor occupancy at 10 µM,NEK2,4.2%
same,receptor occupancy at 10 µM,NUAK1,-1.7%
same,receptor occupancy at 10 µM,"PHKG1; HEK293, PHKG1",55.3%
same,% occupancy at 10 μM,"PHKG1; PHKG1, HEK293",55%
same,receptor occupancy at 10 µM,PLK3,15.5%
same,receptor occupancy at 10 µM,PRKAA1,3.8%
same,receptor occupancy at 10 µM,RPS6KA1,7.1%
same,receptor occupancy at 10 µM,SGK1,1.5%
same,receptor occupancy at 10 µM,SRMS,7.4%
same,receptor occupancy at 10 µM,STK11,0.1%
same,receptor occupancy at 10 µM,STK16,16.4%
same,receptor occupancy at 10 µM,TLK2,4.6%
same,receptor occupancy at 10 µM,TNK1,6.8%
same,receptor occupancy at 10 µM,TNK2,12.5%
same,receptor occupancy at 10 µM,WEE2,4.5%
